The record followed here is patent publication US10448639B2, “Fungicidal pyrazoles” (FMC CORPORATION, priority 2009, dated 2019).

One assay relates to Puccinia recondita f. sp. tritici. Briefly: Test I: wheat leaf rust, preventive spray on wheat seedlings, visual disease rating. To be noted: wheat leaf rust, preventive; 100 = 100% disease control, 0 = no control relative to controls.
From the text: General protocol for preparing test suspensions for Tests A-J: the test compounds were first dissolved in acetone in an amount equal to 3% of the final volume and then suspended at the desired concentration (in ppm) in acetone and purified water (50/50 mix by volume) containing 250 ppm of the surfactant Trem® 014 (polyhydric alcohol esters). The resulting test suspensions were then used in Tests A-J. Spraying a 200 ppm test suspension to the point of run-off on the test plants was the equivalent of a rate of 500 g/ha. Unless otherwise indicated, the rating values indicate a 200 ppm test suspension was used. (An asterisk “*” next to the rating value indicates a 40 ppm test suspension was used.)
The test suspension was sprayed to the point of run-off on wheat seedlings. The following day the seedlings were inoculated with a spore suspension of Puccinia recondita f. sp. tritici (the causal agent of wheat leaf rust) and incubated in a saturated atmosphere at 20° C. for 24 h, and then moved to a growth chamber at 20° C. for 7 days, after which time visual disease ratings were made
A dash (-) indicates no test results.
Consider `COc1cccc(Oc2c(-c3c(F)cc(OC)cc3F)c(C)nn2C)c1` [compound 221], for which the “Test I rating (% disease control)” value was found to be 99%.
Consider `Cc1nn(C)c(Oc2c(F)cc(C#N)cc2F)c1-c1cccc(F)c1F` [compound 274], for which the “Test I rating (% disease control)” value came out at 0%.
As for `COc1ccc(Cl)c(Nc2c(-c3c(F)cccc3F)c(C)nn2C)c1` [compound 215], the “Test I rating (% disease control)” value is reported as 94%.
Turning to `Cc1nn(C)c(Nc2ccc(F)cc2F)c1-c1c(F)cccc1Cl` [compound 177], the “Test I rating (% disease control)” value is listed as 83%.
On the same count and under the same terms, in the case of `COc1cc(F)c(Nc2c(-c3ccccc3C(F)(F)F)c(C)nn2C)c(F)c1` [compound 240] it was 99%; in that of `Cc1ccc(Oc2c(-c3c(F)cc(F)cc3F)c(C)nn2C)cc1C` [compound 209], 0%.

The same assay, now with this note: wheat leaf rust, sprayed the day before inoculation; 100 = 100% disease control, 0 = no disease control relative to controls.
Turning to `Cc1nn(C)c(Oc2c(F)cc(C#N)cc2F)c1-c1cc(F)ccc1F` [compound 329], the “Test I disease control rating” value is reported as 100%.
On to `Cc1nn(C)c(Nc2ccc(Br)cc2F)c1-c1ccc(F)cc1Cl` [compound 366], for which the “Test I disease control rating” value came out at 99%.

A further assay has as its system Botrytis cinerea. Briefly: Test B: tomato Botrytis, preventive spray on tomato seedlings, visual disease rating. The note with it: tomato Botrytis; 100 = 100% disease control, 0 = no control relative to controls.
As to `COc1cccc(Oc2c(-c3c(F)cc(OC)cc3F)c(C)nn2C)c1` [compound 221], the “Test B rating (% disease control)” value is on record as 98%.
As for `Cc1nn(C)c(Oc2c(F)cc(C#N)cc2F)c1-c1cccc(F)c1F` [compound 274], the “Test B rating (% disease control)” value is 8%.
Same read-out and setting: in the case of `COc1ccc(Cl)c(Nc2c(-c3c(F)cccc3F)c(C)nn2C)c1` [compound 215] it was 89%.
As to `Cc1nn(C)c(Nc2ccc(F)cc2F)c1-c1c(F)cccc1Cl` [compound 177], the “Test B rating (% disease control)” value is 100%.
Same read-out and setting: in the case of `COc1cc(F)c(Nc2c(-c3ccccc3C(F)(F)F)c(C)nn2C)c(F)c1` [compound 240] it was 100%; in that of `Cc1ccc(Oc2c(-c3c(F)cc(F)cc3F)c(C)nn2C)cc1C` [compound 209], 0%.

The same assay, now with this note: tomato Botrytis; 100 = 100% disease control, 0 = no disease control relative to controls.
Regarding `Cc1nn(C)c(Oc2c(F)cc(C#N)cc2F)c1-c1cc(F)ccc1F` [compound 329], the “Test B disease control rating” value is recorded as 100%.
Same read-out and setting: the result for `Cc1nn(C)c(Nc2ccc(Br)cc2F)c1-c1ccc(F)cc1Cl` [compound 366] reads 100%.

Another assay deals with Septoria tritici. As to the kind of experiment: Test G: wheat leaf blotch, preventive spray on wheat seedlings, visual disease rating. To be noted: wheat leaf blotch, sprayed the day before inoculation; 100 = 100% disease control, 0 = no disease control relative to controls.
Turning to `Cc1nn(C)c(Oc2c(F)cc(C#N)cc2F)c1-c1cc(F)ccc1F` [compound 329], the “Test G disease control rating” value stood at 100%.
As for `Cc1nn(C)c(Nc2ccc(Br)cc2F)c1-c1ccc(F)cc1Cl` [compound 366], the “Test G disease control rating” value was found to be 100%.

Staying with this assay, now noted: wheat leaf blotch; 100 = 100% disease control, 0 = no control relative to controls.
On to `COc1cccc(Oc2c(-c3c(F)cc(OC)cc3F)c(C)nn2C)c1` [compound 221], for which the “Test G rating (% disease control)” value was 100%.
Take `Cc1nn(C)c(Oc2c(F)cc(C#N)cc2F)c1-c1cccc(F)c1F` [compound 274]: the “Test G rating (% disease control)” value is 96%.
Take `COc1ccc(Cl)c(Nc2c(-c3c(F)cccc3F)c(C)nn2C)c1` [compound 215]: the “Test G rating (% disease control)” value was determined as 98%.
For the compound `Cc1nn(C)c(Nc2ccc(F)cc2F)c1-c1c(F)cccc1Cl` [compound 177], the “Test G rating (% disease control)” value is 98%.
For the compound `COc1cc(F)c(Nc2c(-c3ccccc3C(F)(F)F)c(C)nn2C)c(F)c1` [compound 240], the “Test G rating (% disease control)” value is reported as 99%.
The same measure, in the same setting: the result for `Cc1ccc(Oc2c(-c3c(F)cc(F)cc3F)c(C)nn2C)cc1C` [compound 209] reads 0%.

The test system of the next assay is Alternaria solani. Briefly: Test C: tomato early blight, preventive spray on tomato seedlings, visual disease rating. To be noted: tomato early blight; 100 = 100% disease control, 0 = no control relative to controls.
On to `COc1cccc(Oc2c(-c3c(F)cc(OC)cc3F)c(C)nn2C)c1` [compound 221], for which the “Test C rating (% disease control)” value was determined as 94%.
As for `Cc1nn(C)c(Oc2c(F)cc(C#N)cc2F)c1-c1cccc(F)c1F` [compound 274], the “Test C rating (% disease control)” value came out at 0%.
Take `COc1ccc(Cl)c(Nc2c(-c3c(F)cccc3F)c(C)nn2C)c1` [compound 215]: the “Test C rating (% disease control)” value amounted to 0%.
On the same count and under the same terms, in the case of `Cc1nn(C)c(Nc2ccc(F)cc2F)c1-c1c(F)cccc1Cl` [compound 177] it was 100%; in that of `COc1cc(F)c(Nc2c(-c3ccccc3C(F)(F)F)c(C)nn2C)c(F)c1` [compound 240], 99%; in that of `Cc1ccc(Oc2c(-c3c(F)cc(F)cc3F)c(C)nn2C)cc1C` [compound 209], 0%.

The same assay, now with this note: tomato early blight; 100 = 100% disease control, 0 = no disease control relative to controls.
For `Cc1nn(C)c(Oc2c(F)cc(C#N)cc2F)c1-c1cc(F)ccc1F` [compound 329], the “Test C disease control rating” value is 99%.
As for `Cc1nn(C)c(Nc2ccc(Br)cc2F)c1-c1ccc(F)cc1Cl` [compound 366], the “Test C disease control rating” value is given as 58%.

The test system of a further assay is Erysiphe graminis f sp. tritici. As to the kind of experiment: Test J: wheat powdery mildew, preventive spray on wheat seedlings, visual disease rating. To be noted: wheat powdery mildew, sprayed the day before inoculation; 100 = 100% disease control, 0 = no disease control relative to controls.
Take `Cc1nn(C)c(Oc2c(F)cc(C#N)cc2F)c1-c1cc(F)ccc1F` [compound 329]: the “Test J disease control rating” value worked out at 100%.
The same measure, in the same setting: the result for `Cc1nn(C)c(Nc2ccc(Br)cc2F)c1-c1ccc(F)cc1Cl` [compound 366] reads 100%.

Staying with this assay, now noted: wheat powdery mildew; 100 = 100% disease control, 0 = no control relative to controls.
Take `COc1cccc(Oc2c(-c3c(F)cc(OC)cc3F)c(C)nn2C)c1` [compound 221]: the “Test J rating (% disease control)” value turned out to be 100%.
As to `Cc1nn(C)c(Oc2c(F)cc(C#N)cc2F)c1-c1cccc(F)c1F` [compound 274], the “Test J rating (% disease control)” value was 69%.
As to `COc1ccc(Cl)c(Nc2c(-c3c(F)cccc3F)c(C)nn2C)c1` [compound 215], the “Test J rating (% disease control)” value was determined as 99%.
On the same count and under the same terms, the result for `Cc1nn(C)c(Nc2ccc(F)cc2F)c1-c1c(F)cccc1Cl` [compound 177] reads 100%; that for `COc1cc(F)c(Nc2c(-c3ccccc3C(F)(F)F)c(C)nn2C)c(F)c1` [compound 240], 100%; that for `Cc1ccc(Oc2c(-c3c(F)cc(F)cc3F)c(C)nn2C)cc1C` [compound 209], 97%.

Another assay deals with Septoria nodorum. Briefly: Test F: Septoria glume blotch, preventive spray on wheat seedlings, visual disease rating. The note with it: Septoria glume blotch on wheat; 100 = 100% disease control, 0 = no disease control relative to controls.
On to `Cc1nn(C)c(Oc2c(F)cc(C#N)cc2F)c1-c1cc(F)ccc1F` [compound 329], for which the “Test F disease control rating” value was 69%.
With `Cc1nn(C)c(Nc2ccc(Br)cc2F)c1-c1ccc(F)cc1Cl` [compound 366], the “Test F disease control rating” value is recorded as 0%.

The assay is the same for the next values; noted with them: Septoria glume blotch; 100 = 100% disease control, 0 = no control relative to controls.
In the case of `COc1cccc(Oc2c(-c3c(F)cc(OC)cc3F)c(C)nn2C)c1` [compound 221], the “Test F rating (% disease control)” value is listed as 82%.
In the case of `Cc1nn(C)c(Oc2c(F)cc(C#N)cc2F)c1-c1cccc(F)c1F` [compound 274], the “Test F rating (% disease control)” value was determined as 0%.
Regarding `COc1ccc(Cl)c(Nc2c(-c3c(F)cccc3F)c(C)nn2C)c1` [compound 215], the “Test F rating (% disease control)” value came out at 0%.
For `Cc1nn(C)c(Nc2ccc(F)cc2F)c1-c1c(F)cccc1Cl` [compound 177], the “Test F rating (% disease control)” value is recorded as 73%.
The same measure, in the same setting: in the case of `COc1cc(F)c(Nc2c(-c3ccccc3C(F)(F)F)c(C)nn2C)c(F)c1` [compound 240] it was 0%.
The same measure, in the same setting: in the case of `Cc1ccc(Oc2c(-c3c(F)cc(F)cc3F)c(C)nn2C)cc1C` [compound 209] it was 0%.

Another assay has as its system Puccinia recondita f. sp. tritici. As to the kind of experiment: Test H: wheat leaf rust, curative spray on inoculated wheat seedlings, visual disease rating. The note with it: wheat leaf rust, curative; 100 = 100% disease control, 0 = no control relative to controls.
As to `COc1cccc(Oc2c(-c3c(F)cc(OC)cc3F)c(C)nn2C)c1` [compound 221], the “Test H rating (% disease control)” value is reported as 17%.
Same read-out and setting: the result for `Cc1nn(C)c(Oc2c(F)cc(C#N)cc2F)c1-c1cccc(F)c1F` [compound 274] reads 8%.
The same measure, in the same setting: in the case of `COc1ccc(Cl)c(Nc2c(-c3c(F)cccc3F)c(C)nn2C)c1` [compound 215] it was 0%.
Same read-out and setting: the result for `Cc1nn(C)c(Nc2ccc(F)cc2F)c1-c1c(F)cccc1Cl` [compound 177] reads 0%; that for `COc1cc(F)c(Nc2c(-c3ccccc3C(F)(F)F)c(C)nn2C)c(F)c1` [compound 240], 0%; that for `Cc1ccc(Oc2c(-c3c(F)cc(F)cc3F)c(C)nn2C)cc1C` [compound 209], 0%.

Staying with this assay, now noted: wheat leaf rust, sprayed after inoculation; 100 = 100% disease control, 0 = no disease control relative to controls.
On to `Cc1nn(C)c(Oc2c(F)cc(C#N)cc2F)c1-c1cc(F)ccc1F` [compound 329], for which the “Test H disease control rating” value turned out to be 0%.
The same measure, in the same setting: in the case of `Cc1nn(C)c(Nc2ccc(Br)cc2F)c1-c1ccc(F)cc1Cl` [compound 366] it was 9%.
